Columns and labels:
[1] = system: MCF-7 mammary tumor cells; experiment: cells; assay type: cell-based; details: Homo sapiens, MCF7, 48 h, read-out: cellular viability relative to the control group
Procedure: A cell viability test was carried out on MCF-7 mammary tumor cells (Michigan Cancer Foundation-7) […] (ER(+) cells) containing receptors for the hormone estrogen.
The MCF-7 cells are in a cell culture medium identical to example 14 and are seeded in 12-well plates at 50000 cells per well for 24 h. 24 hours after seeding, the cells are treated with the solvate vehicle comprising water and ethanol with an ethanol ratio 1‰ and comprising 5α-hydroxy-6β-[2-(1H-imidazol-4-yl)-ethylamino]-cholestan-3β-yl propionate or 5α-hydroxy-6β-[2-(1H-imidazol-4-yl)-ethylamino]-cholestan-3β-ol at 1, 2.5 or 5 μM. The cells are observed in an inverted microscope and photographed with the microscope camera at 24 h and 48 h. The morphological changes of the cells at 1 μM are very slight.
Following these observations, a cell viability test is measured by MTT labeling at 48 hours. This test is based on the use of the tetrazolium salt MTT (3-(4,5-dimethylthiazol-2-yl)-2,5-diphenyltetrazolium bromide). Tetrazolium is reduced by mitochondrial succinate dehydrogenase of active living cells, in formazan, precipitate of violet color. The amount of precipitate formed is proportional to the quantity of living cells but also to the metabolic activity of each cell. […] After 48 hours, the medium is aspirated, the cells are washed with phosphate-buffered saline (PBS) and then incubated with MTT (0.5 mg/ml in PBS) for about 2 hours. The MTT solution is aspirated and then the violet crystals are dissolved in dimethylsulfoxide (DMSO). The OD (optical density) is measured at 540 nm.
The control group is carried out similarly to the study groups without adding the molecules studied in the present text. Compared to the control, a decrease is measured, dependent on the dose of […], in cellular viability in MTT for 5α-hydroxy-6β-[2-(1H-imidazol-4-yl)-ethylamino]-cholestan-3β-yl propionate and 5α-hydroxy-6β-[2-(1H-imidazol-4-yl)-ethylamino]-cholestan-3β-ol.

[2] = Pharmacokinetic study of DX107 (LC/MS in plasma); assay type: in vivo; details: rat, oral 50 mg/kg, administered compound assayed; for Area under curve: 0-72 h
Excerpt: The following study is determination by LC/MS in plasma of the various molecules over 3 days (11 measurement points at the end). The graphs are always presented in comparison with DX101, which is the reference. […]

4T1 tumors = experiment: Effect on 4T1 tumor growth and survival in vivo; details: 4T1 tumors in Balb/c mice, 40 mg/kg by stomach tube every day; for Median survival: Kaplan-Meier; for Inhibition of tumor growth: day 8 vs day 0
Procedure: All the procedures on the animals were carried out in accordance with the guidelines of our institution after being approved by the ethics committee. The 4T1 cells were cultured as before, and were dissociated in trypsin and washed twice in cold PBS and resuspended in PBS at 1.5 million/mL. The 4T1 tumors were obtained by subcutaneous transplantation of 0.150 million cells in 100 μL in the flank of female Balb/c mice (9 weeks, January). When the tumors reached a volume of 50-100 mm^3, the mice were fed by stomach tube with 40 mg/kg of DX101 or 40 mg/kg of […] or the control vehicle (water). The treatment was carried out every day until the end of the experiment (tumor volume >1000 mm^3). The tumor volume was determined every day using a caliper gauge and calculated from the formula: ½×(Length*Width^2). The percentage inhibition of tumor growth was determined from the following formula: 100×(1−(tumor volume, day 8/tumor volume day 0)DX107)/(1−(tumor volume, day 8/tumor volume day 0)vehicle).
The Kaplan-Meier method was used for comparing the animals' survival.

Neuro2a cells = experiment: Cytotoxicity on Neuro2a cells, trypan blue assay; assay type: cell-based, murine; details: 48 h; for percentage of live cells compared to the control group: 100 nM
Procedure: For this experiment, a cell culture medium was prepared. The culture medium consists of a Dulbecco's Modified Eagle Medium (DMEM) marketed by Westburg under the reference LO BE12-604F), comprising 4.5 g/L glucose with L-glutamine, to which 10% of fetal calf serum (FCS) is added. Neuro2a cells (murine neuroblastoma) were introduced into this culture medium.
24-well plates were seeded with 10000 Neuro2a cells per well. After culture for 72 hours (h) in normal conditions, i.e. in an incubator at a temperature of 37° C. at 5% CO2, the Neuro2a cells were treated for 48 h with 5α-hydroxy-6β-[2-(1H-imidazol-4-yl)-ethylamino]-cholestan-3β-yl-propionate and 5α-hydroxy-6β-[2-(1H-imidazol-4-yl)-ethylamino]-cholestan-3β-ol at 100 nM, 1 μM and 10 μM. A control (CTL) is also carried out using the protocol described above but without treatment with the aforementioned compounds. Cell survival is quantified by a trypan blue assay with automatic counting with the Biorad TC20 apparatus (TC20™ Automated Cell Counter). The trypan blue assay is based on the integrity of the cell membrane, which is broken in dead cells. The trypan blue stains the dead cells blue. The Biorad TC20 cell counter counts the proportions of blue cells and non-blue cells, relative to the cell percentages.

[3] = target: T1, cholesterol epoxide hydrolase (ChEH) (Homo sapiens, UniProt Q15125); experiment: Activity of cholesterol epoxide hydrolase (ChEH) in MCF-7 cells, [14C]5,6α-EC metabolization by TLC; assay type: cell-based; details: MCF-7, 1 μM, 24 h, [14C]5,6α-EC 0.6 μM
T1 construct: endogenous in cells; host or cells: MCF-7
T1 sequence (Q15125 whole entry): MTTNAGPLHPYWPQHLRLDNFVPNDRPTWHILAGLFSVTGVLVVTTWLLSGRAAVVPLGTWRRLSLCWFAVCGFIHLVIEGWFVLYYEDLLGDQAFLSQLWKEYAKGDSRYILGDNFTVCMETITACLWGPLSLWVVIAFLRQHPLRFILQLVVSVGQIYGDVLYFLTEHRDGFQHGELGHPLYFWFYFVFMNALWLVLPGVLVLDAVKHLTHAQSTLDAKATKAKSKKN
Excerpt: The compounds 5,6α-epoxycholesterol (5,6α-EC) and 5,6β-epoxycholesterol (5,6β-EC) are oxysterols involved in the anticancer pharmacology of tamoxifen, a widely used antitumor drug. They are both metabolized in cholestan-3β,5α,6β-triol (CT) by the enzyme cholesterol-5,6-epoxide hydrolase (ChEH), and CT is metabolized by the enzyme HSD11B2 (11β-hydroxysteroid dehydrogenase 2) to 6-oxo-cholestan-3β,5α-diol (OCDO), an oncosterone tumor promoter.
MCF-7 cells are in a cell culture medium identical to example 20 and are seeded in 6-well plates at 150000 cells per well with 3 wells per treatment condition. 24 h after seeding, the MCF-7 cells are treated with [^14C]5,6α-EC (stock solution 1000×: 0.6 mM; 20 μCi/μmol; final concentration 0.6 μM) alone or in combination with tamoxifen (tam). Tamoxifen is used as positive control of the study compounds. The treatment with the compound according to the invention is carried out at a concentration of 1 μM.
After 24 hours of treatment, the media are collected and lipid extracts are prepared from the cell pellets by extraction with 100 μL of chloroform, 400 μL of methanol and 300 μL of water. The lipid extracts are analyzed by thin-layer chromatography (TLC) using ethyl acetate (EtOAc) as eluent. The analysis is carried out using a plate reader and then by autoradiography.

Row | SMILES | viability at 2.5 µM [1] [%] | viability at 5 µM [1] [%] | Concentration max [2] [nM] | Area under curve [2] | Median survival (4T1 tumors) [days] | Inhibition of tumor growth (4T1 tumors) [%] | percentage of live cells compared to the control group (Neuro2a cells) | percentage cell survival relative to the control group (Neuro2a cells; 1 μM) [%] | percentage cell survival relative to the control group (Neuro2a cells; 10 μM) [%] | inhibition of ChEH activity [3]
1 | CCC(=O)O[C@H]1CC[C@]2(C)[C@H]3CC[C@]4(C)[C@@H]([C@H](C)CCCC(C)C)CC[C@H]4[C@@H]3C[C@@H](NCCc3c[nH]cn3)[C@@]2(O)C1 [DX107, 5α-hydroxy-6β-[2-(1H-imidazol-4-yl)ethylamino]cholestan-3β-yl propionate] | ~95 | ~18 | 142 | 89733 | 14 | 78 | unchanged | 84.08±4.09 | 30.46±5.22 | inhibition of ChEH is observed relative to the control (1), but it is less than the positive control (2)
2 | CC(C)CCC[C@@H](C)[C@H]1CC[C@H]2[C@@H]3C[C@@H](NCCc4c[nH]cn4)[C@@]4(O)C[C@@H](O)CC[C@]4(C)[C@H]3CC[C@]12C [DX101, 5α-hydroxy-6β-[2-(1H-imidazol-4-yl)-ethylamino]-cholestan-3β-ol, reference compound] | ~60 | ~18 | 140 | 143297 | 9 | 58 | unchanged | 85.42±4.73 | 43.25 | almost total (trace of CT)
